The record followed here is patent US20120232011A1, “Use of Rapamycin and Rapamycin Derivatives for the Treatment of Bone Loss” (priority 2003, published 2012).

Test [1] has as its system bone-resorbing osteoclasts differentiated from non-adherent bone marrow mononuclear cells. The experiment in a line: Mouse osteoclastogenesis assay (osteoclast formation and activity). Format: cell-based. As to the method:
Non-adherent bone marrow mononuclear cells from 5-week-old male mice cells are differentiated into bone-resorbing osteoclasts by treatment with a cytokine cocktail containing receptor activator of NF kappa B ligand (RANKL), macrophage-colony stimulating factor (M-CSF) and interleukin-1 (IL-1) alpha. Osteoclast formation is measured after 6 days by quantifying the number of tartrate-resistant acid phosphatase (TRAP)-positive multinucleated cells generated in plastic wells on a 48-well plate. Osteoclast activity is measured after 12 days by quantifying the area of resorbed dentine slices placed in wells on a 48-well plate. Treatment with rapamycin or the rapamycin derivative, e.g. Compound A, starts at the beginning of cell culture, together with the cytokine treatment.

Test [2] has as its system bone-resorbing osteoclasts differentiated from peripheral blood mononuclear cells. Briefly: Human osteoclastogenesis assay. It is filed as cell-based. As to the method:
Peripheral blood mononuclear cells from healthy male donors are differentiated into bone-resorbing osteoclasts by treatment with a cytokine cocktail containing RANKL, M-CSF and transforming growth factor (TGF)-beta 1. Osteoclast formation is measured after 17 days by quantifying the number of TRAP-positive multinucleated cells generated in plastic wells on a 96-well plate. Osteoclast activity is measured after 17 days by quantifying the area of resorbed bone on bovine cortical bone slices placed in wells on a 96-well plate. Treatment with rapamycin or the rapamycin derivative, e.g. Compound A, starts at the beginning of cell culture, together with the cytokine treatment. Collagen fragments are measured by enzyme linked immunosorbent assay (ELISA).

Test [3] has as its system Cdc2-related serine/threonine PFTAIREI
Briefly: Gene expression in human osteoclasts: PFTAIREI
Format: cell-based. Particulars: human osteoclasts after treatment. Here is the method:
(§1) A.3 Gene expression is analyzed according to a method known in the art, in human osteoclasts after treatment with rapamycin or a derivative thereof.

Test [4] has as its system cancellous bone loss after ovariectomy. The experiment in a line: Ovariectomized rat model. It is filed as in vivo. Here is the method: Before operation, the tibial bone mass and geometry of the animals is measured at baseline by dual-energy x-ray absorptiometry (DEXA) and periphere quantitative computer tomography (pQCT). Following ovariectomy (OVX) or sham operation, skeletally mature rats are treated for 8 weeks daily with 0.15 mg/kg, 0.5 mg/kg, 1.5 mg/kg, or 3.0 mg/kg of rapamycin or a rapamycin derivative, e.g. Compound A, or vehicle alone by oral administration or once a week with 1.5 mg/kg or 5.0 mg/kg of rapamycin or a rapamycin derivative; e.g. Compound A. At the beginning of the treatment, animals receive a fluorochrome label, e.g. calcein (e.g. 30 mg/kg, subcutaneous (s.c.)). Changes in bone mass and geometry (pQCT, DEXA) are evaluated in vivo after 4 weeks of treatment and at 8 weeks before necropsy. Body weight is monitored weekly. The animals are administered two further fluorochrome labels for marking of bone mineralization prior to necropsy, e.g. alizarin e.g. 20 mg/kg, s.c., 10 days prior to necropsy, and calcein e.g. 30 mg/kg, s.c., 3 days prior to necropsy. Blood samples (500 μl blood) are taken in heparin before necropsy and frozen at −20° C. for analysis of calcium, phosphate, TRAP, ALP, and osteocalcin. DEXA measurements are carried out at necropsy on excised tibia, femur, and lumbar vertebrae.

Test [5] relates to osteoclast-specific protease cathepsin K. The experiment in a line: Gene expression in human osteoclasts: cathepsin K. Format: cell-based. Particulars: human osteoclasts after treatment. Here is the method: as §1
Test [6] relates to mouse pre-osteoblastic cell line MC3T3-1b. The experiment in a line: Osteoblast differentiation in MC3T3-1b cells (alkaline phosphatase staining). Format: cell-based. To be noted: MC3T3-1b cells with osteogenic stimulus (BMP-2, ascorbic acid, beta-glycerophosphate); read-out: Alkaline phosphatase (ALP) staining IC50. Here is the method:
Osteoblast differentiation is evaluated in mouse pre-osteoblastic cell line MC3T3-1b, stimulated to differentiate with osteogenic stimulus (a mixture of bone morphogenetic protein 2 (BMP-2), ascorbic acid and beta-glycerophosphate). Osteoplast activity is measured by quantifying culture area covered with alkaline phosphate-positive cells on a 48-well plate. Treatment with rapamycin or the rapamycin derivative, e.g. Compound A, starts at the beginning of cell culture, together with the osteogenic stimulus treatment.

Where two headings read alike, the source gives them in different places.

The IC50 is the concentration needed to halve the response being measured. As to `CO[C@H]1C[C@@H]2CC[C@@H](C)[C@@](O)(O2)C(=O)C(=O)N2CCCC[C@H]2C(=O)O[C@H]([C@H](C)C[C@@H]2CC[C@@H](OCCO)[C@H](OC)C2)CC(=O)[C@H](C)/C=C(\C)[C@@H](O)[C@@H](OC)C(=O)[C@H](C)C[C@H](C)/C=C/C=C/C=C/1C` [Compound A, 40-O-(2-hydroxyethyl)-rapamycin], the IC50 in test [1] (TRAP-positive multinucleated cells after 6 days, read-out: osteoclast formation IC50) came out at 10.5 ± 4.6 nM; in test [1] (area of resorbed dentine slices after 12 days, read-out: osteoclast activity IC50), 0.6 ± 0.3 nM; in test [2] (ELISA, read-out: Collagen fragment release IC50), 4 ± 0.5 nM; in test [2] (TRAP-positive multinucleated cells after 17 days, read-out: osteoclast formation IC50), 7.7 ± 1.1 nM; in test [2] (bovine cortical bone slices, 17 days, read-out: Resorbed area IC50) it was 3.4 ± 0.3 nM; in test [6], 13.5 ± 2.4 nM. In addition, the “increase of PFTAIREI expression” value in test [3] was “about 300%”. Further, the “effect on trabecular number” value in test [4] is listed as “inhibits reduction of trabecular number”. Besides, the “inhibition of cancellous bone loss” value in test [4] (3 mg/kg/day, oral) was 60%. In addition, in test [5], the “reduction of cathepsin K expression” value is listed as “about 78%”.
